Measurements from patent US9738614B2, “Malignant and non-malignant disease treatment with Ras antagonists” (PISCES THERAPEUTICS, LLC, priority 2011, dated 2017).

How the values were obtained:
[1] = tested on: sNF94.3 cells; experiment: IC50 assay with sNF94.3 MPNST cells; assay type: cell-based; settings: Homo sapiens, 0.5 to 20 μM, read-out: half-maximal effect on viability
Method: (§1) U87MG cells were seeded in a 24-well plate, 5000 cells per well, and incubated overnight at 37° C. in serum-free media. The next day they were treated in triplicate with 50 and 100 μM of each test compound (1), (2), (3), (4), and (5) and the reference compound FTS. After five days, the cells were trypsinized (0.5%), stained with trypan blue, and counted to determine the cell number per well. The half-maximal inhibitory concentration (IC50) values were calculated using Multiplex Reader-Fit software made by MiraiBio Group, Hitachi Solutions America, Ltd. In a typical experiment, the control wells averaged 138,000 cells. The results are presented graphically in FIG. 1. The test compounds at 50 μM allowed the following U87MG cell proliferation compared to control: compound (1)—37%, compound (2)—18%, compound (3)—10%, compound (4)—40%, and compound (5)—0%. The reference compound FTS at 50 μM allowed 7% cell proliferation compared to control.
Two additional MPNST cell lines, sNF94.3 and sNFO2.2, were subjected to IC50 assays similar to Examples 6 and 11 above. Like the ST88-14 cells from Example 11, the sNF94.3 and sNFO2.2 cells came from NF-1 patients too.

[2] = tested on: activated, GTP-bound form of Ras (Ras-GTP); experiment: Ras-GTP Western blot in SCF-stimulated NF-1+/- mast cells; assay type: cell-based; settings: 10-15 μM, 3 minutes after SCF stimulation (FIG. 4A)
Method: Purified populations of NF-1+/−mast cells were stimulated with a maximum stimulating concentration of stem cell factor (SCF) in the presence of a control or compound (5) at concentrations of 10-15 μM. The activated, GTP-bound form of Ras (Ras-GTP) was measured 3 minutes subsequently using Western blot analysis. […] In parallel experiments, mast cell proliferation was measured using 3H-thymidine incorporation 24 hours after SCF stimulation in the presence of a control or compound (5) at concentrations of 0-12.5 μM. […] Each asterisk in FIG. 4B represents a statistical difference relative to the control using analysis of variance. (Yang, Feng-Chun, et. al. J Clin Invest 2003, 112(12), 1851-1861; Yang, Feng-Chun, et. al. Hum Mol Genet 2006, 15(11), 1921-1930).

[3] = tested on: U87MG cells; experiment: Cell proliferation assay for U87MG cells; assay type: cell-based
Method: The adult glioblastoma cell line U87MG was obtained from a commercial source (ATCC). The pancreatic cancer cell line PANC-1 was obtained from a local laboratory (Indiana University). Both lines were grown in Iscove's Modified Dulbecco's Medium with 10% fetal bovine serum (FBS) at 37° C. and 5% CO2.
Compounds (1), (2), (3), (4), and (5), which are shown and described above, were each dissolved in ethanol at 10 mg/mL. A measured portion of the solution was pipetted into a microcentrifuge tube. Then, the ethanol was evaporated from each tube using a SpeedVac®, leaving just the compound in the tube. The appropriate amount of chloroform was added to the tube to produce a 0.1 M concentration. The solutions were placed on ice and in the dark so they could be pipetted into 10- and 20-μL aliquots in 1.5 mL microcentrifuge tubes. The solutions were frozen at […] with lids closed tightly and the tubes covered with foil.
Prior to treating the cells, a tube of the test compound was removed from the freezer and placed under a biosafety hood to evaporate the chloroform in the tubes. Then, dimethyl sulfoxide (DMSO) was added to the tubes to make the correct concentration to use in the experiment (0.1 M stock). The tubes were vortexed, and warm media with 10% FBS was slowly added to make the correct working concentrations to be used in the experiment. The compounds were directly added to each well for treatment.
as §1
To further evaluate compounds (3) and (5), which inhibited the most cell growth in FIG. 1, more U87MG cells were seeded in 24-well plates, 5000 cells per well, and incubated overnight at 37° C. in serum-free media. The cells were treated the next morning in media with 5% serum in triplicate with standard concentrations of 6.25, 12.5, 25, and 50 μM of each test compound (3) and (5) and the reference compound FTS. After five days of treatment, the cells were trypsinized (0.5%) and then stained with trypan blue. Cells were counted to determine the number of cells per well. Again, the IC50 values were calculated using Multiplex Reader-Fit software made by MiraiBio Group, Hitachi Solutions America, Ltd. In a typical experiment, the control wells averaged 56,000 cells. The results are presented graphically in FIG. 2. The test compounds at 25 μM allowed the following U87MG cell proliferation compared to control: compound (3)—69% and compound (5)—0%. The reference compound FTS at 25 μM allowed over 50% cell proliferation compared to control.
Since the doses of compound (5) used above killed all of the cells, the dose curve was set up again using even lower doses of compound (5). U87MG cells were seeded in 24-well plates, 5000 cells per well, and incubated overnight at 37° C. in serum-free media. The cells were treated in triplicate with 6.25, 12.5, 25, and 50 μM of the reference compound FTS and 0.3125, 0.625, 1.25, 2.5, and 5.0 μM of the test compound (5) in media with 5% serum for five days. Then, the cells were trypsinized (0.5%) and stained with trypan blue, and the cell number per each well was determined. […]

[4] = tested on: GBM6 cells; experiment: IC50 assay with GBM6 glioblastoma cells; assay type: cell-based; settings: Homo sapiens, 1 to 5 μM, read-out: half-maximal effect on cell viability
Method: as §1
An IC50 assay similar to Example 6 above was performed with GBM6 cells prepared from minced, freshly harvested tumor tissue. GBM6 cells were grown in the presence of compound (5) at concentrations ranging from 1 to 5 μM.

[5] = tested on: ECC1 cells; experiment: IC50 assay with ECC1 endometrial cancer cells; assay type: cell-based; settings: Homo sapiens, ECC-1, 1 to 50 μM, read-out: half-maximal inhibition of viability
Method: as §1
ECC1 (well differentiated) and USPC1 (poorly differentiated) endometrial cancer cells were subjected to IC50 assays similar to Example 6 above. The cells were grown in concentrations of compound (5) ranging from 1 to 50 μM.

[6] = tested on: ST88-14 cells; experiment: ST88-14 MPNST flank tumors in nude mice; assay type: in vivo, mouse; settings: 5 mg/kg or 10 mg/kg intraperitoneally once a day
Method: ST88-14 cells were injected into the flanks of nude mice and tumors were allowed to grow. When their lengths and widths could readily be determined by palpation, the animals were treated with compound (5) at doses of 5 mg/kg or 10 mg/kg intraperitoneally once a day or vehicle. Tumor dimensions were determined over the course of a 35 day treatment period at the end of which the animals were killed. At this point the tumors were removed and weighed.

Structure (SMILES): CC(C)=CCC/C(C)=C/CC/C(C)=C/CSc1ccccc1C1=NCCN1 [compound (5), 2-(2-{[(2E,6E)-3,7,11-trimethyldodeca-2,6,10-trien-1-yl]sulfanyl}phenyl)-4,5-dihydro-1H-imidazole]
- IC50 [1]: 2.7 µM
- level of Ras-GTP relative to the control [2]: significantly reduced
- U87MG cell proliferation compared to control ([3]; 2.5 μM, media with 5% serum, five days (FIG. 2)): 56%
- U87MG cell proliferation compared to control ([3]; 25 μM, media with 5% serum, five days (FIG. 2)): 0%
- U87MG cell proliferation compared to control ([3]; 50 μM, five days, trypan blue cell count (FIG. 1)): 0%
- IC50 ([3]; Homo sapiens, U-87 MG, value quoted in Example 7, read-out: IC50 as determined on the U87MG cells): 2.5 µM
- IC50 [4]: 3.5 µM
- IC50 [5]: 4 µM
- tumor size ([6]; 35 day treatment): dose dependent decrease
- tumor weight ([6]; end of 35 day treatment): dose dependent decrease
